Tests used:
Assay type in all cases: in vivo
[1] = tested on: A498 human renal carcinoma; test: A498 renal tumour xenograft in SCID mice, SEQ ID NO:1 and interferon alpha
Procedure: (§1) Cell line: Human renal carcinoma cell line (A498) was grown as monolayer culture in Minimum essential medium (α-MEM) supplemented with 10% fetal bovine serum (FBS), 0.1 mM non-essential amino acid, 1.0 mM sodium pyruvate, 100 U/ml penicillin, 100 μg/ml streptomycin and 0.25 μg/ml amphotericin B and 2 mM L-alanyl-1-glutamine at 37° C. in an atmosphere of 5% CO2 in air. The tumour cells were routinely subcultured twice weekly by trypsin-EDTA treatment. The cells were harvested from subconfluent logarithmically growing culture by treatment with trypsin-EDTA and counted for tumour inoculation.
(§2) Tumour Inoculation: An acclimation period of at least 7 days was allowed between animal receipt and commencement of tumour inoculation. When the female SCID mice were 6-7 weeks of age (20-25 g), each mouse was subcutaneously injected with 9×10^6 A498 human renal carcinoma cells in 0.1 ml of PBS at the right flank of the mice to induce tumour growth.
Dose Preparation and Treatment: The dose for SEQ ID NO:1 was formulated using the following procedure. From a concentrated stock solution (usually prepared in ddH2O at a concentration of 50 mg/ml and kept at −80° C.), SEQ ID NO:1 was diluted with saline to achieve a final target concentration of 1 or 2.5 mg/ml on the first day of dosing. Enough SEQ ID NO:1 was diluted so that the compound could be administered by bolus infusion into the tail vein every other day for the duration of the experiment. Recombinant interferon alfa-2b (ntron A™) was employed according to the dose and treatment schedules below. The treatments were started 20 days after the tumour cell inoculation when the tumour size reached an approximate volume of 200 mm^3. Each treatment group contained 10 tumour-bearing mice. Routes of administration are as follows: intravenous (i.v.) and intratumoural (i.t.).
• 1. Saline treated group-1: saline 0.1 ml/mouse/48 hours, i.v., n=10 • 2. Saline treated group-2: saline 0.05 ml/mouse/5 days/week, i.t., n=10 • 3. SEQ ID NO:1 treated group: 1 mg/kg/48 hours in 0.1 ml saline, i.v. n=10 • 4. SEQ ID NO:1 treated group: 2.5 mg/kg/48 hours in 0.1 ml saline, i.v., n=10 • 5. […]
Treatment started from day 20 after inoculation of human renal tumour cells. […]
Endpoints: The effects of SEQ ID NO:1 and Intron A on tumour growth was determined. Tumour sizes were measured every week from day 20 after the tumour cell inoculation in two dimensions using a caliper, and the volume was expressed in mm^3 using the formula: V=0.5 a×b^2, where a and b are the long and short diameters of the tumour, respectively. Mean tumour volumes calculated from each measurement were then plotted in a standard graph to compare the anti-tumour efficacy to that of controls. A day after the last treatment, tumours were excised from the animals and their weights were measured. […]

[2] = tested on: Caki-1 human renal carcinoma; test: Caki-1 renal tumour xenograft in SCID mice, SEQ ID NO:1 and interferon alpha
Procedure: as §1, with “Line:” for “line:”, “(Caki-1)” for “(A498)”, “(FEBS),” for “(FBS),”, “L-alanyl-L-glutamine” for “L-alanyl-1-glutamine”
as §2, with “subcutaneously (s.c.)” for “subcutaneously”, “5×10^6 Caki-1” for “9×10^6 A498”
Dose-Preparation and Treatment: The dose for SEQ ID NO:1 was formulated using the following procedure. From a concentrated stock solution (usually prepared in ddH2O at a concentration of 50 mg/ml and kept at −80° C.), SEQ ID NO:1 was diluted with saline to achieve a final target concentration of 1 or 2.5 mg/ml on the first day of dosing. Enough SEQ ID NO:1 was diluted so that the compound could be administered by bolus infusion into the tail vein every other day for the duration of the experiment. Recombinant interferon alfa-2b (Intron A™) was utilized according to the dose and treatment schedules below. The treatments were started 7 days after the tumour cell inoculation when the tumour size reached an approximate volume of 125 mm^3. Each treatment group contained 10 tumour-bearing mice. Routes of administration are indicated as follows: intravenous (i.v.) and intratumoural (i:t.).
Groups and Treatments: The following treatment groups were evaluated: • 1. Saline treated group-1: saline 0.1 ml/mouse/48 hours, i.v., n=10 • 2. Saline treated group-2: saline 0.05 ml/mouse/5 days/week, i.t., n=10 • 3. […] Intron A 10^3 unit/5 days/week treated group: 10^3 unit Intron A in 0.05 ml saline, i.t., n=10 • 6. Intron A 10^5 unit/5 days/week treated group: 10^5 unit Intron A in 0.05 ml saline, i.t., n=10 • 7. SEQ ID NO:1 1 mg/kg Plus Intron A 10^3 treated group: “3+5”, n=10 • 8. SEQ ID NO:1 1 mg kg Plus Intron A 10^5 treated group: “3+6”, n=10 • 9. SEQ ID NO:1 2.5 mg/kg Plus Intron A […], n=10 • 10. SEQ ID NO:1 2.5 mg/kg Plus Intron A 10^5 treated group: “4+6”, n=10
Mice received 25 treatments with SEQ ID NO:1 and 30 treatments with Intron A. The dosing schedule for Intron A was: treatment with Intron A for 3 consecutive weeks, 1 week off, and treatment with Intron A again for another 3 consecutive weeks. The dosing schedule for SEQ ID NO:1 was treatment with SEQ ID NO:1 every other day for the duration of the experiment.
Endpoints: The effects of SEQ ID NO:1 and Intron A on tumour growth were determined. Tumour sizes were measured every week from day 7 after the tumour cell inoculation in two dimensions using a caliper, and the volume was expressed in mm^3 using the formula: V=0.5 a×b^2, where a and b are the long and short diameters of the tumour, respectively. Mean tumour volumes calculated from each measurement were then plotted in a standard graph to compare the anti-tumour efficacy to that of controls. A day after the last treatment, tumours were excised from the animals and their weights were measured.
A second independent in vivo study was conducted as described in Example 1 utilizing SCID mice (female, 6 weeks old) and Caki-1 (human renal carcinoma cell line) to test the efficacy of SEQ ID NO:1 in combination with IFN alpha Briefly, 5×10^6 Caki-1 human renal carcinoma cells in 0.1 ml of PBS were injected subcutaneously at the right flank of the mice to induce tumour growth. Treatments started on the seventh day after tumour cell injection. […]

[3] = tested on: Caki-1 human renal cancer cells; test: Caki-1 renal tumour xenograft in SCID mice, SEQ ID NO:1 and chemotherapeutics; conditions: Caki (renal); Mouse CD-1
Procedure: Caki-1 human renal cancer cells (1×10^7 cells in […] of PBS) were subcutanteously injected into the right flank of 6-7 weeks old female SCID mice. After the size of tumour reached an approximate volume of 200 mm^3, 7 days post tumour cell injection, SEQ ID NO:1 was administered by bolus infusion into the tail vein every other day at 10 mg/kg. Control animals received saline alone for the same period. The antitumour effect of SEQ ID NO:1 was further compared to that of two chemotherapeutic agents: 5-FU and vinblastine. 5-FU was administered intraperitoneally at days 7-13, 21-27 and 35-36 with a dose of 13 mg/kg/day, while vinblastin was administered intraperitoneally at days 7, 14, 21, 28 and 35 at a dose of 0.6 mg/kg/week. Antitumour effects of each of these compounds were further compared to those of SEQ ID NO:1 in combination with 5-FU or with vinblastin. The two chemotherapeutic agents were applied as described above, one hour after the treatments with SEQ ID NO:1 when combination treatments occurred on the same day. All treatments were stopped at day 36. A day after the last treatment, tumours were excised from the animals and their weights were measured.

Compound | anti-tumour efficacy (tumour volume, tumour weight) ([1]; Example 6, SEQ ID NO:1 1 or 2.5 mg/kg/48 hours i.v., Intron A 10^3 or 10^5 unit 5 days/week i.t.) | anti-tumour efficacy (tumour volume, tumour weight) ([1]; Example 7, SEQ ID NO:1 2.5 mg/kg/2ds i.v., 10000 units Intron A x5/week for 2 weeks i.t.) | anti-tumour efficacy (tumour volume, tumour weight) ([2]; Example 2, SEQ ID NO:1 1 or 2.5 mg/kg/48 hours i.v., Intron A 10^3 or 10^5 unit 5 days/week i.t.) | anti-tumour efficacy (tumour volume, tumour weight) ([2]; Example 3, SEQ ID NO:1 2.5 or 5 mg/kg every 2 days i.v., Intron 10^5 unit 5 days/week i.t.) | anti-tumour efficacy (tumour volume, tumour weight) ([2]; Example 4, oligonucleotide 2.5 mg/kg every 2 days i.v., Intron A 10^5 unit 5 days/week i.t.) | efficacy in combination with SEQ ID NO:1, subcutaneous versus intratumoural ([2]; Example 5, SEQ ID NO:1 2.5 mg/kg/2 days i.v. plus 100000 units Intron A x3/week s.c. or i.t.) | Tumour weight as % of saline control [3] [%]
Recombinant interferon alfa-2b [Intron A] | significant anti-tumour efficacy | significant anti-tumour efficacy | significant anti-tumour efficacy | significant anti-tumour efficacy | significant anti-tumour efficacy | equally effective | –
O=c1[nH]cc(F)c(=O)[nH]1 [5-FU, 5-fluorouracil, reference compound] | – | – | – | – | – | – | 52

Reference: patent US20080311126A1, “Antisense Oligonucleotides Directed to Ribonucleotide Reducatase R2 and Uses Thereof in Combination Therapies for the Treatment of Cancer” (Genesense Technologies, Inc, priority 2004, published 2008)
